According to US8133884B2, “Compounds for the treatment of hepatitis C” (priority 2008, dated 2012):

Assays:
HCV NS5B = target: T1, HCV NS5B (Hepatitis C virus genotype 1b, UniProt Q9WMX2); assay: Modified HCV NS5B RdRp enzyme assay (preincubation protocol); assay type: biochemical
T1 construct: The protein was expressed with an 18 amino acid C-terminal truncation to enhance the solubility; made in house; host or cells: E. coli BL21(DE3)
Protocol: The cDNA encoding the NS5B protein of HCV, genotype 1b, was cloned into the pET21a expression vector. The protein was expressed with an 18 amino acid C-terminal truncation to enhance the solubility. The E. coli competent cell line BL21(DE3) was used for expression of the protein. Cultures were grown at 37° C. for ˜4 hours until the cultures reached an optical density of 2.0 at 600 nm. The cultures were cooled to 20° C. and induced with 1 mM IPTG. Fresh ampicillin was added to a final concentration of 50 μg/ml and the cells were grown overnight at 20° C.
Cell pellets (3 L) were lysed for purification to yield 15-24 mgs of purified NS5B. The lysis buffer consisted of 20 mM Tris-HCl, pH 7.4, 500 mM NaCl, 0.5% triton X-100, 1 mM DTT, 1 mM EDTA, 20% glycerol, 0.5 mg/ml lysozyme, 10 mM MgCl2, 15 ug/ml deoxyribonuclease I, and Complete TM protease inhibitor tablets (Roche). After addition of the lysis buffer, frozen cell pellets were resuspended using a tissue homogenizer. To reduce the viscosity of the sample, aliquots of the lysate were sonicated on ice using a microtip attached to a Branson sonicator. The sonicated lysate was centrifuged at 100,000×g for 1 hr at 4° C. and filtered through a 0.2 μm filter unit (Corning).
The protein was purified using three sequential chromatography steps: Heparin sepharose CL-6B, polyU sepharose 4B, and […] SP sepharose (Pharmacia). The chromatography buffers were identical to the lysis buffer but contained no lysozyme, deoxyribonuclease I, MgCl2 or protease inhibitor and the NaCl concentration of the buffer was adjusted according to the requirements for charging the protein onto the column. Each column was eluted with a NaCl gradient which varied in length from 5-50 column volumes depending on the column type. After the final chromatography step, the resulting purity of the enzyme is >90% based on SDS-PAGE analysis. The enzyme was aliquoted and stored at −80° C.
HCV RdRp genotype 1b assays were run in a final volume of 60 μl in 96 well plates (Costar 3912). The assay buffer is composed of 20 mM Hepes, pH 7.5, 2.5 mM KCl, 2.5 mM MgCl2, 1 mM DTT, 1.6 U RNAse inhibitor (Promega N2515), 0.1 mg/ml BSA (Promega R3961), and 2% glycerol. All compounds were serially diluted (3-fold) in DMSO and diluted further in water such that the final concentration of DMSO in the assay was 2%. HCV RdRp genotype 1b enzyme was used at a final concentration of 28 nM. A polyA template was used at 6 nM, and a biotinylated oligo-dT12 primer was used at 180 nM final concentration. Template was obtained commercially (Amersham 27-4110). Biotinylated primer was prepared by Sigma Genosys. 3H-UTP was used at 0.6 μCi (0.29 μM total UTP). Reactions were initiated by the addition of enzyme, incubated at 30° C. for 60 min, and stopped by adding 25 μl of 50 mM EDTA containing SPA beads (4 μg/μl, Amersham RPNQ 0007). Plates were read on a Packard TOPCOUNT® NXT after >1 hr incubation at room temperature.
A modified enzyme assay was performed essentially as described for the standard enzyme assay except for the following: The biotinylated oligo dT12 primer was precaptured on streptavidin-coated SPA beads by mixing primer and beads in assay buffer and incubating at room temperature for one hour. Unbound primer was removed after centrifugation. The primer-bound beads were resuspended in 20 mM Hepes buffer, pH 7.5 and used in the assay at final concentrations of 20 nM primer and 0.67 μg/μl beads. Order of addition in the assay: enzyme (14 nM) was added to diluted compound followed by the addition of a mixture of template (0.2 nM), 3H-UTP (0.6 μCi, 0.29 μM), and primer-bound beads, to initiate the reaction; concentrations given are final. Reactions were allowed to proceed for 4 hours at 30° C.
IC50 values for compounds were determined using seven different [I]. IC50 values were calculated from the inhibition using the formula y=A+((B−A)/(1+((C/x)^D))).

HCV replicon = HCV replicon assay (FRET or luciferase reporter); assay type: cell-based; details: Hepatitis C virus, one of the methods described
From the text: To perform the HCV FRET screening assay, 96-well cell culture plates were used, The FRET peptide (Anaspec, Inc.) (Taliani et al., Anal. Biochem., 240:60-67 (1996)) contains a fluorescence donor, EDANS, near one end of the peptide and an acceptor, DABCYL, near the other end. The fluorescence of the peptide is quenched by […] resonance energy transfer (RET) between the donor and the acceptor, but as the NS3 protease cleaves the peptide the products are released from RET quenching and the fluorescence of the donor becomes apparent. The assay reagent was made as follows: 5× cell Luciferase cell culture lysis reagent from Promega (#E153A) diluted to 1× with dH2O, NaCl added to 150 mM final, the FRET peptide diluted to 20 μM final from a 2 mM stock.
To prepare plates, HCV replicon cells, with or without a Renilla luciferase reporter gene, were trypsinized and placed into each well of a 96-well plate with titrated test compounds added in columns 3 through 12; columns 1 and 2 contained a control compound (HCV protease inhibitor), and the bottom row contained cells without compound. The plates were then placed in a CO2 incubator at 37° C.
Subsequent to addition of the test compounds described above (FRET Assay Preparation), at various times the plate was removed and Alamar blue solution (Trek Diagnostics, #00-100) was added per well as a measure of cellular toxicity. After reading in a CYTOFLUOR® 4000 instrument (PE Biosystems), plates were rinsed with PBS and then used for FRET assay by the addition of 30 ul of the FRET peptide assay reagent described above (FRET Assay Preparation) per well. The plate was then placed into the CYTOFLUOR® 4000 instrument which had been set to 340 excite/490 emission, automatic mode for 20 cycles and the plate read in a kinetic mode. Typically, the signal to noise using an endpoint analysis after the reads was at least three-fold. Alternatively, after Alamar blue reading, plates were rinsed with PBS, 50 ul of DMEM (high glucose) without phenol red was added and plates were then used for luciferase assay using the Promega DUAL-GLO® Luciferase Assay System.
Compound analysis was determined by quantification of the relative HCV replicon inhibition and the relative cytotoxicity values. To calculate cytoxicity values, the average Alamar Blue fluorescence signals from the control wells were set as 100% non-toxic. The individual signals in each of the compound test wells were then divided by the average control signal and multiplied by 100% to determine […]. To calculate the HCV replicon inhibition values, an average background value was obtained from the two wells containing the highest amount of HCV protease inhibitor at the end of the assay period. These numbers were similar to those obtained from naïve Huh-7 cells.
The background numbers were then subtracted from the average signal obtained from the control wells and this number was used as 100% activity. The individual signals in each of the compound test wells were then divided by the averaged control values after background subtraction and multiplied by 100% to determine percent activity. EC50 values for a protease inhibitor titration were calculated as the concentration which caused a 50% reduction in FRET or luciferase activity. The two numbers generated for the compound plate, percent cytoxicity and percent activity were used to determine compounds of interest for further analysis.
The HCV replicon luciferase assay was developed to monitor the inhibitory effects of compounds described in the disclosure on HCV viral replication. Utilization of a replicon luciferase reporter assay was first described by Krieger et al (Krieger, N. et al., J. Virology, 75(10):4614-4624 (2001)). HUH-7 cells, constitutively expressing the HCV replicon, were grown in Dulbecco's Modified Eagle Media (DMEM) (Gibco-BRL) containing 10% Fetal calf serum (FCS) (Sigma) and 1 mg/ml G418 (Gibco-BRL). […]

T1 sequence (Q9WMX2 2420-2992): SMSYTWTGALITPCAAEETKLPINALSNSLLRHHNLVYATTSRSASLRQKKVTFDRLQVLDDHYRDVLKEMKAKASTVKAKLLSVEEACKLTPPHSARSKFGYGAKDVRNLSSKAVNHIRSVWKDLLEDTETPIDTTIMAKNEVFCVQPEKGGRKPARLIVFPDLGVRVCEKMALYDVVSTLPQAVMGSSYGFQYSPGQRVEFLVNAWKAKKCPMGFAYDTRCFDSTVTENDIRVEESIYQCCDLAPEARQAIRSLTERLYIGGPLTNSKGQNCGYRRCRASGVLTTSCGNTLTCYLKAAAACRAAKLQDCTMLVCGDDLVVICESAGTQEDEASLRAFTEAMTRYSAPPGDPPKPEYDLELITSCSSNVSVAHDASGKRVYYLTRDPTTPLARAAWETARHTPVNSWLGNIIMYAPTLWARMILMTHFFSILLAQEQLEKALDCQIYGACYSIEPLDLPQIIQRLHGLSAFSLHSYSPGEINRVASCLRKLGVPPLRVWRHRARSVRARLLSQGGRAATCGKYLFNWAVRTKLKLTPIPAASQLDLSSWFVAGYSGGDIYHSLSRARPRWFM

Compound	IC50 (HCV NS5B; class symbol)	IC50 (HCV NS5B; exact value)	EC50 (HCV replicon; class symbol)	EC50 (HCV replicon; exact value)
COc1ccc2c(c1)C=C(c1c(C(=O)N3C4CCCC3COC4)cnn1-c1ccncc1C)Cn1c-2c(C2CCCCC2)c2ccc(C(=O)NS(=O)(=O)C(C)C)cc21	1.7 to 500 nM	4.3 nM	1.7 to 500 nM	4 nM
CCOC(=O)c1cnn(C2CCN(C)CC2)c1C1=Cc2cc(OC)ccc2-c2c(C3CCCCC3)c3ccc(C(=O)O)cc3n2C1	1.7 to 500 nM	–	1.7 to 500 nM	–
COc1ccc2c(c1)C=C(c1c(C(=O)N3CCOCC3)cnn1C1CCOCC1)Cn1c-2c(C2CCCCC2)c2ccc(C(=O)NS(=O)(=O)CC(C)C)cc21	1.7 to 500 nM	4.2 nM	1.7 to 500 nM	8.4 nM
COc1ccc2c(c1)C=C(c1c(C(=O)N3CC[C@H]4C[C@H]43)cnn1C1CCC1)Cn1c-2c(C2CCCCC2)c2ccc(C(=O)NS(=O)(=O)C(C)C)cc21	1.7 to 500 nM	–	1.7 to 500 nM	–
COc1ccc2c(c1)C=C(c1c(C(=O)N3C[C@@H](C)O[C@@H](C)C3)cnn1-c1cc[nH]c(=O)c1)Cn1c-2c(C2CCCCC2)c2ccc(C(=O)NS(=O)(=O)C(C)C)cc21	1.7 to 500 nM	8.9 nM	> 1000 nM	> 1000 nM
COc1ccc2c(c1)C=C(c1c(C(=O)N3C[C@@H](C)O[C@@H](C)C3)cnn1C1CCC1)Cn1c-2c(C2CCCCC2)c2ccc(C(=O)NS(=O)(=O)C(C)C)cc21	1.7 to 500 nM	–	1.7 to 500 nM	–
COc1ccc2c(c1)C=C(c1c(C(=O)N3CCOCC3)ncn1C1CC1)Cn1c-2c(C2CCCCC2)c2ccc(C(=O)NS(=O)(=O)C(C)C)cc21	1.7 to 500 nM	–	1.7 to 500 nM	–
CCN1C[C@@H]2C[C@H]1CN2C(=O)c1c(C)nn(C2CCC2)c1C1=Cc2cc(OC)ccc2-c2c(C3CCCCC3)c3ccc(C(=O)NS(=O)(=O)C(C)C)cc3n2C1	1.7 to 500 nM	–	1.7 to 500 nM	–
COCC1CN(C(=O)c2cnn(C3CCN(C)CC3)c2C2=Cc3cc(OC)ccc3-c3c(C4CCCCC4)c4ccc(C(=O)NS(=O)(=O)C(C)C)cc4n3C2)CCO1 (stereo not shown)	1.7 to 500 nM	–	1.7 to 500 nM	–
COc1ccc2c(c1)C=C(c1c(C(=O)N3C[C@@H](C)O[C@@H](C)C3)cnn1-c1cnccn1)Cn1c-2c(C2CCCCC2)c2ccc(C(=O)NS(=O)(=O)C(C)C)cc21	1.7 to 500 nM	–	1.7 to 500 nM	–
CCN1CC2CC1CN2C(=O)c1c(C2=Cc3cc(OC)ccc3-c3c(C4CCCCC4)c4ccc(C(=O)NS(=O)(=O)C(C)C)cc4n3C2)ncn1C1CCC1 (stereo not shown)	1.7 to 500 nM	–	1.7 to 500 nM	–
COc1ccc2c(c1)C=C(c1c(C(=O)N3CCOCC3)ncn1C1CCC1)Cn1c-2c(C2CCCCC2)c2ccc(C(=O)NS(=O)(=O)C(C)C)cc21	1.7 to 500 nM	9.7 nM	1.7 to 500 nM	70 nM
COc1ccc2c(c1)C=C(c1c(C(=O)N3C[C@@H](C)O[C@@H](C)C3)cnn1-c1ccncc1C)Cn1c-2c(C2CCCCC2)c2ccc(C(=O)NS(=O)(=O)C3CC3)cc21	1.7 to 500 nM	–	1.7 to 500 nM	–
COc1ccc2c(c1)C=C(c1c(C(=O)N3CCOCC3)cnn1C1CCOCC1)Cn1c-2c(C2CCCCC2)c2ccc(C(=O)NS(=O)(=O)C(C)C)cc21	1.7 to 500 nM	–	1.7 to 500 nM	–
COc1ccc2c(c1)C=C(c1c(C(=O)N3C4CCC3COC4)c(C)nn1C1CCC1)Cn1c-2c(C2CCCCC2)c2ccc(C(=O)NS(=O)(=O)C(C)C)cc21	1.7 to 500 nM	–	1.7 to 500 nM	–
COc1ccc2c(c1)C=C(c1c(C(=O)N3C[C@@H](C)N(C)[C@@H](C)C3)cnn1C1CCN(C)CC1)Cn1c-2c(C2CCCCC2)c2ccc(C(=O)NS(=O)(=O)C(C)C)cc21	1.7 to 500 nM	–	1.7 to 500 nM	–
COc1ccc2c(c1)C=C(c1c(C(=O)N3C[C@@H]4C[C@H]3CO4)c(C)nn1C1CCC1)Cn1c-2c(C2CCCCC2)c2ccc(C(=O)NS(=O)(=O)C(C)C)cc21	1.7 to 500 nM	–	1.7 to 500 nM	–
COc1ccc2c(c1)C=C(c1c(C(=O)N3C[C@@H](C)O[C@@H](C)C3)cnn1-c1ccncc1C)Cn1c-2c(C2CCCCC2)c2ccc(C(=O)NS(=O)(=O)C(C)C)cc21	1.7 to 500 nM	–	1.7 to 500 nM	–
COc1ccc2c(c1)C=C(c1c(C(=O)N3C[C@@H]4C[C@H]3CN4CC3CC3)c(C)nn1C1CCC1)Cn1c-2c(C2CCCCC2)c2ccc(C(=O)NS(=O)(=O)C(C)C)cc21	1.7 to 500 nM	–	1.7 to 500 nM	–
COc1ccc2c(c1)C=C(c1c(C(=O)N3C[C@@H]4C[C@H]3CN4C)c(C)nn1C1CCC1)Cn1c-2c(C2CCCCC2)c2ccc(C(=O)NS(=O)(=O)C(C)C)cc21	1.7 to 500 nM	–	1.7 to 500 nM	–
COc1ccc2c(c1)C=C(c1c(C(=O)N3CCN(C)CC3)cnn1C1CCC1)Cn1c-2c(C2CCCCC2)c2ccc(C(=O)NS(=O)(=O)C(C)C)cc21	1.7 to 500 nM	–	1.7 to 500 nM	–
COc1ccc2c(c1)C=C(c1c(C(=O)N3C4CCCC3COC4)cnn1C1CCN(C)CC1)Cn1c-2c(C2CCCCC2)c2ccc(C(=O)NS(=O)(=O)C(C)C)cc21	1.7 to 500 nM	–	1.7 to 500 nM	–
